For one series, the system named is sucrose loaded rat. Put plainly: Sucrose loaded rat model (SLM), antihyperglycemic activity. Type of series: in vivo. Particulars: for % Fall in blood glucose levels, SLM: 100 mg/kg oral, AUC vs control; for inhibition in vivo at 100 mg/kg: Rattus norvegicus, po, 2 h, read-out: % Fall in blood glucose levels, SLM. The method, then: Male albino rats of Charles Foster/Wistar strain of average body weight 160±20 g were selected for this study. The blood glucose level of each animal was checked by glucometer using glucostrips (Boehringer Mannheim) after 16 h starvation. Animals showing blood glucose levels between 3.33 to 4.44 mM (60 to 80 mg/dl) were divided into groups of five to six animals in each. Animals of experimental group were administered suspension of the desired synthetic compound orally (made in 1.0% gum acacia) at a dose of 100-mg/kg-body weight. Animals of control group were given an equal amount of 1.0% gum acacia. A sucrose load (10.0 g/kg) was given to each animal orally exactly after 30 min post administration of the test sample/vehicle. Blood glucose profile of each rat was again determined at 30, 60, 90 and 120 min post administration of sucrose by glucometer. Food but not water was withheld from the cages during the course of experimentation. Quantitative glucose tolerance of each animal was calculated by Area Under Curve (AUC) method (Prism Software). Comparing the AUC of experimental and control groups determined the percentage antihyperglycemic activity. Statistical comparison was made by Dunnett's test.

In series [1] the test system is triton WR-1339 induced hyperlipidemic rats. Put plainly: Triton model, antidyslipidemic activity. It is filed as in vivo, rat. Particulars: Rattus norvegicus, 100 mg/kg oral, plasma after 18 h. The procedure: Male Charles foster rats weighing 200-225 g were divided into control, hyperlipidemic and hyperlipidemic plus drug treated groups containing six animals in each group. Hyperlipidemia was induced by administration of triton WR-1339 (200 mg/kg i.p.). All animals were maintained on a special pellet diet and water ad libitum. Compounds and standard drug were macerated with 0.2% aqueous gum acacia suspension. The suspension was fed orally at the dose of 100 mg/kg simultaneously with triton in drug treated group. The animals of control group received the same amount of gum acacia by similar route of administration. At the end of the experiment, after 18 h, blood was withdrawn from retro orbital plexus and plasma was used for the assay of total cholesterol, phospholipid and triglycerides.
Cholesterol was estimated using the kit provided by Roche Diagnostics. Cholesterol esters are enzymatically hydrolyzed by cholesterol esterase (CE) to cholesterol and free fatty acids. Free cholesterol, including that originally present, is then oxidized by cholesterol oxidase (CO) to cholest-4-en-3-one and hydrogen peroxide. The hydrogen peroxide combines with hydroxy benzoic acid (HBA) and 4-aminoantipyrine (4AAA) in the presence of peroxidase (POD) to form a chromophore (quinoneimine dye), which may be quantitated at 500-505 nm. The intensity of red colour formed is directly proportional to the concentration of total cholesterol in the specimen and measured spectrophotometrically (Searcy, C. L. Diagnostic Biochemistry, 1969, McGraw Hill, New York; Ellefson, R. D.; Caraway, W. T. Fundamentals of clinical chemistry, 1976, Ed Tietz N W, 506-515.)
Triglycerides were estimated using the kit provided by Roche Diagnostics. Lipoprotein lipase hydrolyses triglycerides to yield glycerol and fatty acids. Glycerol kinase converts glycerol to glycerol-3-phosphate, which is oxidized by glycerol phosphate oxidase to dihydroxy acetone phosphate and hydrogen peroxide. In the presence of peroxidase, hydrogen peroxide oxidatively couples with 4-aminoantipyrine and 4-chloro phenol to produce red quinonimine dye. The intensity of red colour formed is directly proportional to the concentration of triglycerides in the specimen and is measured by photometrically (Wahlefeld, A. W.; Bergmeyer, H. U. Ed. Methods of enzymatic analysis, 2nd English edition, New York, N.Y., Academic press inc, 1831-1840.).
Serum (0.2 mL) and perchloric acid (1.0 mL) was digested at 180° C. for 1-1.5 h till the solution became colorless. The liberated inorganic phosphate (Pi) was measured by the method of Fiske and Subbarow (Fiske, C. H.; Subbarow, V. J. Biol. Chem. 1925, 66, 375.). 1 mL of 2.5% ammonium molybdate (prepared in 5 N sulphuric acid) and 0.5 mL reducing agent (4-amino naphthol sulphonic acid, 0.2%), sodium metabisulphite (2.4% w/v in distilled water) was added to the above tubes and mixed well. The reaction mixture was […] with 2.5 mL of triple distilled water and kept at 60° C. in water bath for 20 min. For standard, an appropriate amount of potassium dihydrogen phosphate dissolved in triple distilled water containing 2-10 μg phosphorous (Pi) was run simultaneously with the experiment tubes. The optical density of the blue colour was recorded at 620 nm against reagent blank. The values of Pi were converted into phospholipid by multiplying with 25 (a constant calibrated from Pi value of lecithin).

Series [2] concerns streptozotocin-induced diabetic rats. Put plainly: Sucrose-challenged streptozotocin-induced diabetic rats (STZ-S). It is filed as in vivo, rat. The note with it: 100 mg/kg oral. The procedure:
Male albino rats of Sprague Dawley strain of body weight 160+20 g were selected for this study. Streptozotocin (Sigma, USA) was dissolved in 100 mM citrate buffer pH 4.5 and calculated amount of the fresh solution was injected to overnight fasted rats (45 mg/kg) intraperitoneally. Blood glucose level was checked 48 h later by glucostrips and animals showing blood glucose values between 144 to 270 mg/dl (8 to 15 mM) were included in the experiment and termed diabetic. The diabetic animals were divided into groups consisting of five to six animals in each group. Animals of experimental groups were administered suspension of the desired test samples orally (made in 1.0% gum acacia) at a dose of 100-mg/kg-body weight. Animals of control group were given an equal amount of 1.0% gum acacia. A sucrose load of 2.5-g/kg body weight was given after 30 minutes of compound administration. After 30 minutes of post sucrose load blood glucose level was again checked by glucostrips at 30, 60, 90, 120, 180, 240, 300 min and at 24 h, respectively. Animals not found diabetic after 24 hours post treatment of the test sample were not considered and omitted from the calculations and termed as non-responders. […] Food but not water was withheld from the cages during the experimentation. Comparing the AUC of experimental and control groups determined the percent antihyperglycemic activity. Statistical comparison between groups was made by Student's ‘t’ test.
As depicted in the FIGURE, a dose response curve of 34 was obtained by administering different doses of test compound to streptozotocin-induced diabetic rats (Table 6). […]

The mark [3] stands for this setting: phospholipid, read-out: % Fall in lipid levels (Triton model) PL.
The mark [4] stands for this setting: total cholesterol, read-out: % Fall in lipid levels (Triton model) TC.
The mark [5] stands for this setting: triglycerides, read-out: % Fall in lipid levels (Triton model) TG.

Read-outs that look alike come from different tables or passages of the source.

The record followed here is patent US7635779B2, “Oxy substituted flavones as antihyperglycemic and antidyslipidemic agents” (Council of Scientific & Industrial Research, priority 2004, dated 2009).

In turn, `CC(C)NCC(O)COc1ccc2c(=O)cc(-c3cc(OCc4ccccc4)cc(OCc4ccccc4)c3)oc2c1` (centres unmarked) [Compound 35, 3′,5′-Dibenzyloxy-7-(2-hydroxy-3-iso-propylamino-propoxy)-flavone] yielded a melting point of 173 to 174 °C. Besides, the “% Fall in blood glucose levels, SLM” value in the series on sucrose loaded rat is on record as “NIL”. Further, the inhibition in vivo at 100 mg/kg in series [1] (setting [3]) was 8%. In addition, the inhibition in vivo at 100 mg/kg in series [1] (setting [4]) is 13%. In addition, the inhibition in vivo at 100 mg/kg in series [1] (setting [5]) was 11%.
With `CC(C)(C)NCC(O)COc1ccc2c(=O)cc(-c3cc(O)cc(O)c3)oc2c1` (centres unmarked) [Compound 48, 7-(3-tert-Butylamino-2-hydroxy-propoxy)-3′,5′-dihydroxy-flavone], the melting point was 153 °C (dec.). The inhibition in vivo at 100 mg/kg in the series with sucrose loaded rat came to 19.1%. Also, the inhibition in vivo at 100 mg/kg in series [1] (setting [3]) was 4%. The inhibition in vivo at 100 mg/kg in series [1] (setting [4]) was 17%. Besides, the inhibition in vivo at 100 mg/kg in series [1] (setting [5]) was found to be 16%. Moreover, in series [2], the “% Fall in blood glucose levels, STZ-S 5 h” value (shortened to “% Fall … STZ-S 5 h”) is reported as “NIL” and the “% Fall in blood glucose levels, STZ-S 24 h” value (from here on “% Fall … STZ-S 24 h”) is given as “NIL”.
Turning to `COc1cc(-c2cc(=O)c3ccc(OCC(O)CNC(C)(C)C)cc3o2)cc(OC)c1OC` (centres unmarked) [Compound 40, 7-(3-tert-Butylamino-2-hydroxy-propoxy)-3′,4′,5′-trimethoxy-flavone], the melting point fell in the range of 119 to 120 °C. Moreover, the “% Fall in blood glucose levels, SLM” value with sucrose loaded rat is listed as “NIL”. Moreover, in series [1] (setting [3]), the inhibition in vivo at 100 mg/kg was 26%. Besides, in series [1] (setting [4]), the inhibition in vivo at 100 mg/kg turned out to be 24%. Besides, the inhibition in vivo at 100 mg/kg in series [1] (setting [5]) was 28%.
Regarding `CC(C)(C)NCC(O)COc1ccc2oc(-c3ccc(OCc4ccccc4)c(OCc4ccccc4)c3)cc(=O)c2c1` (centres unmarked) [Compound 39, 6-(3-tert-Butylamino-2-hydroxy-propoxy)-3′,4′-dibenzyloxy-flavone], the melting point was in the range of 156 to 157 °C. Also, the inhibition in vivo at 100 mg/kg in the series with sucrose loaded rat was 21.8%. Besides, the inhibition in vivo at 100 mg/kg in series [1] (setting [3]) stood at 12%. Besides, the inhibition in vivo at 100 mg/kg in series [1] (setting [4]) is 21%. For the same molecule, the inhibition in vivo at 100 mg/kg in series [1] (setting [5]) turned out to be 17%. Moreover, in series [2], the “% Fall … STZ-S 5 h” value was 14.9% and the “% Fall … STZ-S 24 h” value was determined as 0.36%.
Regarding `COc1cc(OC)cc(-c2cc(=O)c3ccc(OCC(O)CNC(C)C)cc3o2)c1` (centres unmarked) [Compound 44, 3′,5′-Dimethoxy-7-[2-hydroxy-3-iso-propylamino-propoxy]-flavone], the melting point lay in the range of 155 to 156 °C. In the series with sucrose loaded rat, the inhibition in vivo at 100 mg/kg was determined as 1.36%. The inhibition in vivo at 100 mg/kg in series [1] (setting [3]) was 21%. Besides, the inhibition in vivo at 100 mg/kg in series [1] (setting [4]) was found to be 17%. Besides, the inhibition in vivo at 100 mg/kg in series [1] (setting [5]) came out at 24%.
In turn, `COc1cc(-c2cc(=O)c3ccc(OCC(O)CNC(C)C)cc3o2)cc(OC)c1OC` (centres unmarked) [Compound 41, 7-(2-Hydroxy-3-iso-propylamino-propoxy)-3′,4′,5′-trimethoxy-flavone] had a melting point of 106 to 107 °C. Further, the inhibition in vivo at 100 mg/kg with sucrose loaded rat came to 20.7%. In series [1] (setting [3]), the inhibition in vivo at 100 mg/kg was determined as 16%. Also, the inhibition in vivo at 100 mg/kg in series [1] (setting [4]) was 18%. The inhibition in vivo at 100 mg/kg in series [1] (setting [5]) was 19%. Moreover, in series [2], the “% Fall … STZ-S 5 h” value amounted to 17.4% and the “% Fall … STZ-S 24 h” value was found to be 19.1%.
In turn, `O=c1cc(-c2cc(OCc3ccccc3)cc(OCc3ccccc3)c2)oc2cc(OCC(O)CN3CCN(c4ccccc4)CC3)ccc12` (centres unmarked) [Compound 36, 3′,5′-Dibenzyloxy-7-[2-hydroxy-3-(4-phenylpiperazin-1-yl)-propoxy]-flavone] registered a melting point of 168 to 170 °C. In addition, the inhibition in vivo at 100 mg/kg with sucrose loaded rat came out at 34.6%. Besides, the inhibition in vivo at 100 mg/kg in series [1] (setting [3]) is 21%. Moreover, in series [1] (setting [4]), the inhibition in vivo at 100 mg/kg was determined as 24%. In series [1] (setting [5]), the inhibition in vivo at 100 mg/kg was 17%. Also, in series [2], the “% Fall … STZ-S 5 h” value is on record as “NIL” and the “% Fall … STZ-S 24 h” value is recorded as 2.46%.
Take `CC(C)NCC(O)COc1ccc2c(=O)cc(-c3ccc(OCc4ccccc4)c(OCc4ccccc4)c3)oc2c1` (centres unmarked) [Compound 38, 3′,4′-Dibenzyloxy-7-(2-hydroxy-3-iso-propylamino-propoxy)-flavone]: the melting point is 177 to 179 °C. Also, the “% Fall in blood glucose levels, SLM” value in the series with sucrose loaded rat is listed as “NIL”. For the same molecule, in series [1] (setting [3]), the inhibition in vivo at 100 mg/kg was 5%. In series [1] (setting [4]), the inhibition in vivo at 100 mg/kg worked out at 16%. Moreover, the inhibition in vivo at 100 mg/kg in series [1] (setting [5]) was 14%.
The matching figures for `COc1cc(OC)cc(-c2cc(=O)c3ccc(OCC(O)CNC(C)(C)C)cc3o2)c1` (centres unmarked) [Compound 43, 7-[3-tert-Butylamino-2-hydroxy-propoxy]-3′,5′-dimethoxy flavone]: 145 to 146 °C, “NIL”, 19%, 21% and 17%.

For orientation: melting point means the temperature, or range, at which the solid turns liquid.
